Literature values in article PMC10017685 (Nature Communications, 2023).
Read-outs that look alike come from different tables or passages of the source.

System: human erythrocytes
Design: method as in DBAASP
Settings: cited from earlier work
[1] = toxicity class label 1 or 0, meaning of the labels not given, DBAASP HC50 data, human erythrocytes, ref DBAASP

Sequence | Class (dedicated toxicity dataset used for toxicity classifier evaluation) [1] | Class (dedicated toxicity dataset used for toxicity classifier evaluation)
IKKIVSKIKKLL [DBAASP_7244] | 0 | –
IKKIVSKIKKLLK [DBAASP_7245] | 0 | –
IKKIVSKIKKVLK [DBAASP_7246] | 0 | –
IKKWWSKIKKLLK [DBAASP_7156] | 0 | –
IKNAKVCVYAVCVSHK [DBAASP_12238] | 0 | –
IKWKKLLRAAKRIL [DBAASP_2253] | 0 | –
ILGAILPLVSGLLSNKL [DBAASP_4393] | 0 | –
ILGKLLKTAAGLLSNL [DBAASP_4361] | 1 | –
ILGKLLKTAAKLLSNL [DBAASP_4365] | 0 | –
ILGKLLSTAAGLLKNL [DBAASP_4363] | 0 | –
ILGKLLSTAAGLLSKL [DBAASP_4364] | 0 | –
ILGKLLSTAAKLLSKL [DBAASP_4366] | 1 | –
ILGKLLSTAAKLLSNL [DBAASP_4362] | 1 | –
ILKKLLSTAAGLLSNL [DBAASP_4360] | 0 | –
ILPFKFPFFPFRR [DBAASP_4761] | 0 | –
ILPILGNLLNGLL [DBAASP_3402] | 0 | –
ILPILGNLLNSLL [DBAASP_3403] | 0 | –
ILPILSLIGGLL [DBAASP_3346] | 0 | –
ILPIRSLIKKLL [DBAASP_5721] | 0 | –
ILPWKWPWWPWRR [DBAASP_491] | 0 | –
ILPYKYPYYPYRR [DBAASP_4763] | 0 | –
INWIKIGKKIIASL [DBAASP_18234] | 0 | –
IPPFIKKVLTTVF [DBAASP_3483] | 0 | –
ITEVITILLNRLTDRLEK [DBAASP_13425] | 0 | –
ITKQITKQLNRQTKIQSK [DBAASP_13427] | 0 | –
KALWKTMLKKLGTMAL [DBAASP_10105] | 0 | –

Sequence | Class (dedicated toxicity dataset used for toxicity classifier evaluation) [1] | Class (dedicated toxicity dataset used for toxicity classifier evaluation)
KFKKLFKKLSPVFKRIVQRIKDFLR [DBAASP_13190] | 0 | –
KFKKVIWKSFL [DBAASP_13719] | 0 | –
KFLGTLVNLAKKIL [DBAASP_5014] | 0 | –
KGIVGMLGKLF [DBAASP_5480] | 0 | –
KIAGKIAKIAGKIA [DBAASP_10129] | – | 0
KIAGKIAKIAGKIAKIAGKIA [DBAASP_691] | – | 0
KIAKGALKALKIAKGALKAL [DBAASP_11229] | 0 | –
KIAKGALKALKIAKVALKAL [DBAASP_11228] | 1 | –
KIAKIAGKIAKIAGKIA [DBAASP_14992] | 0 | –
KIAKIAGKIAKIAGKIAKIAGKIA [DBAASP_14995] | 1 | –
KIAKVALKALKIAKGALKAL [DBAASP_9754] | 0 | –
KIAKVALKALKIAKVALKAL [DBAASP_9753] | 0 | –
KIALKALKALKALGKALKAL [DBAASP_11232] | 1 | –
KIFGAIWPLALGALKNLIK [DBAASP_7010] | 1 | –
KIGKALGKALKALGKALGKA [DBAASP_11230] | 1 | –
KIKWILKYWKWS [DBAASP_10700] | 0 | –
KIWFQNKKMKWKK [DBAASP_8802] | 0 | –
KIWFQNRRMKWKK [DBAASP_8800] | 0 | –
KKKKKKKKKGGGLLALLALLA [DBAASP_13727] | 1 | –
KKKLAKLKLGAKLKLKGKLGA [DBAASP_13729] | 0 | –
KKLFKKILKYL [DBAASP_197] | 0 | –
KKLFKKILKYLA [DBAASP_13463] | 1 | –
KKLIKKILKIL [DBAASP_5047] | 0 | –
KKVLKAAA [DBAASP_7361] | 0 | –
KKVLKAAA [DBAASP_7362] | 0 | –
KKVLKAAA [DBAASP_7365] | 1 | –

Sequence | Class (dedicated toxicity dataset used for toxicity classifier evaluation) [1] | Class (dedicated toxicity dataset used for toxicity classifier evaluation)
KKYLLPIVGNLLKSLL [DBAASP_7638] | 0 | –
KLALKLALKALKAALKLA [DBAASP_1030] | 1 | –
KLFKKLFK [DBAASP_17848] | 0 | –
KLGFENFLVKALKTVMHVPTSPLL [DBAASP_5711] | 0 | –
KLLGPLLKIAAKVGSNLL [DBAASP_4921] | 0 | –
KLLKFIKTLL [DBAASP_3151] | 0 | –
KLLKKAGKLLKKAGKLLKKAG [DBAASP_13728] | 0 | –
KLLKRIKKLL [DBAASP_3152] | 0 | –
KLLKRIKTLL [DBAASP_3149] | 0 | –
KLLKVIKKLL [DBAASP_3153] | 0 | –
KQIKIWFQNKKMKWKK [DBAASP_8799] | 0 | –
KQKLAKLKAKLQKLKQKLAKL [DBAASP_10912] | 0 | –
KRIVQRIKDFLR [DBAASP_146] | 0 | –
KRIVQRIKKWLR [DBAASP_6827] | 0 | –
KRRVRWIIW [DBAASP_17712] | 0 | –
KWAVRIIRKFIKGFIS [DBAASP_13726] | 0 | –
KWCFRVCYRGICYRRCR [DBAASP_2229] | – | 0
KWCVYAYVKVKGVLVKYKKCW [DBAASP_2027] | 0 | –
KWFKIQLQIKKWKNKK [DBAASP_8806] | 0 | –
KWKLFKKIFKRIVQRIKDFLRN [DBAASP_9530] | 0 | –
KWKVFKKAEKMIRNIRNKIVK [DBAASP_11863] | 0 | –
KWKVFKKIEKMARNIRNKIVK [DBAASP_11864] | 0 | –
KWKVFKKIEKMIRNIRNKIAK [DBAASP_11865] | 0 | –
LALKSGGWLRLFGLKDKKH [DBAASP_6706] | 0 | –
LKKVLKAAA [DBAASP_7359] | 0 | –
LLGMIPLAISAISALSKL [DBAASP_3893] | 0 | –

Sequence | Class (dedicated toxicity dataset used for toxicity classifier evaluation) [1] | Class (dedicated toxicity dataset used for toxicity classifier evaluation)
LLGPVLGLVSNVLGGLL [DBAASP_12136] | 0 | –
LLKKVLKAAA [DBAASP_7357] | 0 | –
LLKKVLKAAA [DBAASP_7358] | 1 | –
LPFFLLSLIPSAISAIKKI [DBAASP_8437] | 1 | –
LWGALLGLGSTLLSKL [DBAASP_18167] | 1 | –
LWKIGKKIWRVLWNWR [DBAASP_17519] | 1 | –
LWKIWKKIWRVGWNWR [DBAASP_17513] | 0 | –
LWKIWKKIWRVWKNWR [DBAASP_17516] | 1 | –
LWKIWWKIWRVWKNWR [DBAASP_17523] | 1 | –
MPLSWFFPRTWGKR [DBAASP_9722] | 0 | –
NILNTIINLAKKIL [DBAASP_3562] | 0 | –
NLLGSLLKTGLKVGSNLL [DBAASP_5712] | 0 | –
PFKIDIHLGGY [DBAASP_7635] | 0 | –
RAGLQFPVGRVHRLLRK [DBAASP_7651] | 0 | –
RFCVYAYVRVRGVLVRYRRCF [DBAASP_13515] | 0 | –
RFRRLRKKTRKRLKKI [DBAASP_7143] | 0 | –
RIGVLLARLPKLFSLFKLMGKKV [DBAASP_4189] | 0 | –
RIRFPWPWRWPWWPRFRG [DBAASP_8616] | 0 | –
RIRIRWIIR [DBAASP_17706] | 0 | –
RIRWILRYWRWS [DBAASP_10701] | 0 | –
RIWFQNRRMRWRR [DBAASP_8801] | 0 | –
RPPQFTRAQWFAIQHISLN [DBAASP_6545] | 1 | –
RQIKIWFQNRRLKWKK [DBAASP_8797] | 0 | –
RQIKIWFQNRRMKWKK [DBAASP_6203] | 0 | –
RQIRIWFQNRRMRWRR [DBAASP_8798] | 0 | –
